{"source": "patent US20140329682A1", "about": "“METHOD OF CONTROLLING WEED IN A SUGAR CANE FIELD” (SUMITOMO CHEMICAL COMPANY, LIMITED, priority 2011, published 2014)", "key": {"Amaranthus retroflexus": {"system": "Amaranthus retroflexus", "test": "Herbicidal activity, soil surface spray on day of planting (Example 1)", "format": "in vivo", "details": "four weeks after treatment, scale 0 to 100", "procedure": "(§1) The stem cutting from which a bud had grown to about 1 cm was selected, and the length of the stem cutting was adjusted to be 3 cm, 15 cm or 25 cm. The stem cutting of 3 cm or 15 cm had only one node, and the stem cutting of 25 cm had two nodes. A soil was packed into a 32 cm×25 cm×11 cm plastic pot, and seeds of Amaranthus retroflexus were seeded thereon. […] On the date when the stem cutting was planted, and after planting of the stem cutting, a water-diluted liquid of a flumioxazin water dispersible granule (water dispersible granule containing 51% floumioxazin, trade name: Valor SX, manufactured by Valent USA Corporation) (100 ppm or 250 ppm) was uniformly sprayed on the soil surface with a sprayer at an amount described in Table 1. Thereafter, the pot for a test was placed in a greenhouse. Four weeks after treatment with flumioxazin, phytotoxicity on sugar cane and the herbicidal activity against Amaranthus retroflexus were determined."}, "sugar cane": {"system": "sugar cane", "test": "Phytotoxicity on sugar cane, soil surface spray on day of planting (Example 1)", "format": "in vivo", "details": "four weeks after treatment, scale 0 to 100", "procedure": "as §1"}}}
{"compound": "C#CCN1C(=O)COc2cc(F)c(N3C(=O)C4=C(CCCC4)C3=O)cc21", "note": "[Flumioxazin, flumioxazin]", "values": [{"measurement": "Herbicidal activity", "setting": "Amaranthus retroflexus; 50 g (active ingredient)/ha, stem cutting 3 cm", "value": 100}, {"measurement": "Herbicidal activity", "setting": "Amaranthus retroflexus; 50 g (active ingredient)/ha, stem cutting 15 cm", "value": 100}, {"measurement": "Herbicidal activity", "setting": "Amaranthus retroflexus; 50 g (active ingredient)/ha, stem cutting 25 cm", "value": 100}, {"measurement": "Herbicidal activity", "setting": "Amaranthus retroflexus; 125 g (active ingredient)/ha, stem cutting 3 cm", "value": 100}, {"measurement": "Herbicidal activity", "setting": "Amaranthus retroflexus; 125 g (active ingredient)/ha, stem cutting 15 cm", "value": 100}, {"measurement": "Herbicidal activity", "setting": "Amaranthus retroflexus; 125 g (active ingredient)/ha, stem cutting 25 cm", "value": 100}, {"measurement": "Phytotoxicity on sugar cane", "setting": "sugar cane; 50 g (active ingredient)/ha, stem cutting 3 cm (one node)", "value": 0}, {"measurement": "Phytotoxicity on sugar cane", "setting": "sugar cane; 50 g (active ingredient)/ha, stem cutting 15 cm (one node)", "value": 5}, {"measurement": "Phytotoxicity on sugar cane", "setting": "sugar cane; 50 g (active ingredient)/ha, stem cutting 25 cm (two nodes)", "value": 20}, {"measurement": "Phytotoxicity on sugar cane", "setting": "sugar cane; 125 g (active ingredient)/ha, stem cutting 3 cm (one node)", "value": 0}, {"measurement": "Phytotoxicity on sugar cane", "setting": "sugar cane; 125 g (active ingredient)/ha, stem cutting 15 cm (one node)", "value": 5}, {"measurement": "Phytotoxicity on sugar cane", "setting": "sugar cane; 125 g (active ingredient)/ha, stem cutting 25 cm (two nodes)", "value": 20}]}
